Assay results taken from the CheMixHub viscosity set.

Assay: xn = mol fraction of the nth substance listed

CC(C)(C)c1ccccc1 + CCCCCCCCCCCCCCCC
viscosity [mPa·s], 100 kPa
Conditions | x2 = 0.0661 | x2 = 0.106 | x2 = 0.2088 | x2 = 0.3087 | x2 = 0.3877 | x2 = 0.5114 | x2 = 0.621 | x2 = 0.6915 | x2 = 0.8377 | x2 = 0.9225
298.15 K | 1.236 | 1.297 | 1.442 | 1.566 | 1.675 | 1.87 | 2.073 | 2.235 | 2.597 | 2.821
308.15 K | 1.065 | 1.111 | 1.235 | 1.343 | 1.427 | 1.584 | 1.749 | 1.868 | 2.138 | 2.298
318.15 K | 0.928 | 0.968 | 1.072 | 1.17 | 1.247 | 1.382 | 1.513 | 1.606 | 1.804 | 1.914

C=CC(=O)OC + CCCCCCCCCCO
viscosity [mPa·s], 101.3 kPa
Conditions | x1 = 0.1056 | x1 = 0.2709 | x1 = 0.3442 | x1 = 0.4717 | x1 = 0.5843 | x1 = 0.7574 | x1 = 0.8309 | x1 = 0.8923 | x1 = 0.9483 | x1 = 0.9749
298.15 K | 7.732 | 4.826 | 3.593 | 2.331 | 1.712 | 0.938 | 0.738 | 0.639 | 0.519 | 0.482
308.15 K | 5.659 | 3.531 | 2.828 | 1.792 | 1.425 | 0.804 | 0.641 | 0.54 | 0.459 | 0.432

C=CC(=O)OCCCC + CCCCCCCCCCO
viscosity [mPa·s], 101.3 kPa
Conditions | x1 = 0.0646 | x1 = 0.1907 | x1 = 0.2493 | x1 = 0.3612 | x1 = 0.4732 | x1 = 0.665 | x1 = 0.756 | x1 = 0.8402 | x1 = 0.9227 | x1 = 0.9615
298.15 K | 9.073 | 5.873 | 4.998 | 3.536 | 2.535 | 1.653 | 1.303 | 1.07 | 0.905 | 0.843
308.15 K | 6.488 | 4.404 | 3.679 | 2.762 | 2.073 | 1.301 | 1.115 | 0.897 | 0.781 | 0.723

C=CC(=O)OC + CCCCCCCCO
viscosity [mPa·s], 101.3 kPa
Conditions | x1 = 0.0847 | x1 = 0.2398 | x1 = 0.3089 | x1 = 0.4269 | x1 = 0.5391 | x1 = 0.7233 | x1 = 0.8011 | x1 = 0.8748 | x1 = 0.9408 | x1 = 0.9698
298.15 K | 5.555 | 3.533 | 2.795 | 1.948 | 1.353 | 0.857 | 0.692 | 0.566 | 0.506 | 0.47
308.15 K | 4.155 | 2.757 | 2.06 | 1.583 | 1.127 | 0.732 | 0.622 | 0.497 | 0.433 | 0.415

C=CC(=O)OCCCC + CCCCCCCCO
viscosity [mPa·s], 101.3 kPa
Conditions | x1 = 0.0586 | x1 = 0.1668 | x1 = 0.2181 | x1 = 0.3218 | x1 = 0.4238 | x1 = 0.6226 | x1 = 0.7052 | x1 = 0.8125 | x1 = 0.9095 | x1 = 0.9529
298.15 K | 5.944 | 4.17 | 3.544 | 2.729 | 2.165 | 1.403 | 1.232 | 0.998 | 0.9 | 0.85
308.15 K | 4.393 | 3.177 | 2.752 | 2.096 | 1.689 | 1.146 | 0.992 | 0.841 | 0.753 | 0.715

C=CC(=O)OC + CCCCCCCO
viscosity [mPa·s], 101.3 kPa
Conditions | x1 = 0.0803 | x1 = 0.219 | x1 = 0.2841 | x1 = 0.4009 | x1 = 0.5184 | x1 = 0.7017 | x1 = 0.7824 | x1 = 0.8604 | x1 = 0.9347 | x1 = 0.9686
298.15 K | 4.278 | 2.912 | 2.304 | 1.632 | 1.218 | 0.783 | 0.653 | 0.563 | 0.493 | 0.467
308.15 K | 3.262 | 2.282 | 1.857 | 1.348 | 1.032 | 0.677 | 0.568 | 0.49 | 0.428 | 0.411

C=CC(=O)OCCCC + CCCCCCCO
viscosity [mPa·s], 101.3 kPa
Conditions | x1 = 0.0538 | x1 = 0.1451 | x1 = 0.1979 | x1 = 0.2976 | x1 = 0.5964 | x1 = 0.6984 | x1 = 0.7966 | x1 = 0.8968 | x1 = 0.9498
298.15 K | 4.656 | 3.548 | 3.084 | 2.394 | 1.35 | 1.12 | 0.981 | 0.869 | 0.824
308.15 K | 3.481 | 2.761 | 2.398 | 1.922 | 1.084 | 0.925 | 0.836 | 0.736 | 0.705

C=CC(=O)OC + CCCCCCO
viscosity [mPa·s], 101.33 kPa
Conditions | 308.15 K | 318.15 K
x1 = 0.0466 | 2.892 | 2.186
x1 = 0.149 | 2.128 | 1.687
x1 = 0.2479 | 1.616 | 1.331
x1 = 0.3487 | 1.247 | 1.059
x1 = 0.4466 | 0.989 | 0.859
x1 = 0.4989 | 0.881 | 0.772
x1 = 0.5479 | 0.795 | 0.701
x1 = 0.6418 | 0.662 | 0.588
x1 = 0.7501 | 0.549 | 0.486
x1 = 0.8501 | 0.472 | 0.414
x1 = 0.9438 | 0.417 | 0.36

C=CC(=O)OC + CCCCCO
viscosity [mPa·s], 101.33 kPa
Conditions | 308.15 K | 318.15 K
x1 = 0.0469 | 2.288 | 1.82
x1 = 0.148 | 1.725 | 1.406
x1 = 0.2501 | 1.327 | 1.104
x1 = 0.3489 | 1.053 | 0.89
x1 = 0.4436 | 0.86 | 0.735
x1 = 0.5084 | 0.758 | 0.651
x1 = 0.545 | 0.708 | 0.61
x1 = 0.6489 | 0.594 | 0.514
x1 = 0.7484 | 0.513 | 0.445
x1 = 0.8456 | 0.454 | 0.392
x1 = 0.9477 | 0.409 | 0.35

CCCCCCCCCCCCCC(=O)OC + CCCCCO
viscosity [mPa·s], 100 kPa
Conditions | x2 = 0.1012 | x2 = 0.2002 | x2 = 0.2997 | x2 = 0.4007 | x2 = 0.4997 | x2 = 0.6007 | x2 = 0.7006 | x2 = 0.7997 | x2 = 0.9
293.15 K | 4.279 | 4.092 | 3.927 | 3.791 | 3.695 | 3.592 | 3.512 | 3.539 | 3.679
298.15 K | 3.789 | 3.61 | 3.474 | 3.371 | 3.249 | 3.162 | 3.1 | 3.1 | 3.191
303.15 K | 3.336 | 3.189 | 3.071 | 2.96 | 2.868 | 2.794 | 2.729 | 2.72 | 2.795
308.15 K | 2.932 | 2.809 | 2.701 | 2.603 | 2.524 | 2.454 | 2.397 | 2.384 | 2.429
313.15 K | 2.641 | 2.533 | 2.43 | 2.342 | 2.268 | 2.197 | 2.15 | 2.126 | 2.159
318.15 K | 2.42 | 2.318 | 2.234 | 2.142 | 2.071 | 2.006 | 1.96 | 1.938 | 1.949
323.15 K | 2.18 | 2.089 | 2.009 | 1.931 | 1.865 | 1.803 | 1.764 | 1.73 | 1.738

CCCCCOC(C)=O + CCCCCO
viscosity [mPa·s], 101.33 kPa
Conditions | x1 = 0.0982 | x1 = 0.1951 | x1 = 0.3024 | x1 = 0.4009 | x1 = 0.5015 | x1 = 0.6044 | x1 = 0.7081 | x1 = 0.8063 | x1 = 0.9007
293.15 K | 3.552 | 3.076 | 2.623 | 2.266 | 1.952 | 1.675 | 1.436 | 1.241 | 1.079
303.15 K | 2.583 | 2.279 | 1.984 | 1.747 | 1.534 | 1.343 | 1.174 | 1.034 | 0.915
313.15 K | 2.039 | 1.811 | 1.588 | 1.407 | 1.244 | 1.097 | 0.966 | 0.857 | 0.763
323.15 K | 1.198 | 1.103 | 1.001 | 0.924 | 0.847 | 0.776 | 0.709 | 0.652 | 0.601

CC(C)CO + CCCCO
101 kPa
Conditions | viscosity [mPa·s]
293.15 K, x2 = 0.2 | 3.68
293.15 K, x2 = 0.4 | 3.434
293.15 K, x2 = 0.6 | 3.243
293.15 K, x2 = 0.8 | 3.078
298.15 K, x2 = 0.0982 | 3.238
298.15 K, x2 = 0.2007 | 3.111
298.15 K, x2 = 0.301 | 3.016
298.15 K, x2 = 0.4046 | 2.935
298.15 K, x2 = 0.5026 | 2.859
298.15 K, x2 = 0.6261 | 2.772
298.15 K, x2 = 0.7024 | 2.726
298.15 K, x2 = 0.8001 | 2.672
298.15 K, x2 = 0.9178 | 2.608
313.15 K, x2 = 0.2 | 2.022
313.15 K, x2 = 0.4 | 1.937
313.15 K, x2 = 0.6 | 1.872
313.15 K, x2 = 0.8 | 1.818
